Experimental data as given in PMC3504484 (Journal of Medicinal Chemistry, 2012).
Where two headings read alike, the source gives them in different places.

What was measured:
5-HT3A receptor = biological target: T1, 5-HT3A receptor (Homo sapiens, UniProt P46098); assay type: binding
T1 sequence (P46098 24-478): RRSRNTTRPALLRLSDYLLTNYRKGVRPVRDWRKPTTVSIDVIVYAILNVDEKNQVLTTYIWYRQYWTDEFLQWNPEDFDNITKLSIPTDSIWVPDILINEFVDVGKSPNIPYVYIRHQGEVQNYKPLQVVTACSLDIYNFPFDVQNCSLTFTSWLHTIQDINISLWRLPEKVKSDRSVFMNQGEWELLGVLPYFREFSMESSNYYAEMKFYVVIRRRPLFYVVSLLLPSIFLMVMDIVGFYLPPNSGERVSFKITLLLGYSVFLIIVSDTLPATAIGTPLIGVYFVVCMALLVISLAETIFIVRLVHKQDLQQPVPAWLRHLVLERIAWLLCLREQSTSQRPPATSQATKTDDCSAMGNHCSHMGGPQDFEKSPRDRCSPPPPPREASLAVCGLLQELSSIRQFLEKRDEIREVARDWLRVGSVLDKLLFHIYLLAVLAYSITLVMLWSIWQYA

Glycine = assay: single point radioligand competition binding; design: species or system rat; details: 0.1 µM
[1] = compared to quinoline compound 51
[2] = compared to parent isoquinoline compound 52

CN1CCN(c2nc(N(C)C)c3cc(Cl)ccc3n2)CC1 [Compound 13]
fold reduction in affinity (5-HT3A receptor; compared to compound 6): ~10 fold

CN1CCN(c2nc(O)c3cc(Cl)ccc3n2)CC1 [Compound 48]
fold reduction in affinity (5-HT3A receptor): ~500 fold

CNc1cc(N2CCN(C)CC2)nc2ccccc12 [Compound 31, N-Methyl-2-(4-methylpiperazin-1-yl)quinolin-4-amine]
fold drop in affinity (5-HT3A receptor; [1]): ~30 fold

CN1CCN(c2nc(N)c3cc(Cl)ccc3n2)CC1 [Compound 12]
fold reduction in affinity (5-HT3A receptor): ~10 fold

CN1CCN(c2cnc3ccccc3c2)CC1 [Compound 35, 3-(4-Methylpiperazin-1-yl)quinoline]
fold drop in affinity (5-HT3A receptor; compared to (iso)quinolines 51 and 52): > 250 fold

CN1CCN(c2cnc3ccccc3n2)CC1 [Compound 50]
fold lower affinity (5-HT3A receptor; compared to compounds 49, 51 and 52): 3–10 fold

CN1CCN(c2ccc3c(N)cccc3n2)CC1 [Compound 46, 2-(4-Methylpiperazin-1-yl)quinolin-5-amine]
fold drop in affinity (5-HT3A receptor; compared to compound 30): ~100 fold | fold drop in affinity (5-HT3A receptor; [1]): ~1000 fold

CN1CCN(c2ncc3cc(Cl)ccc3n2)CC1 [Compound 11, 6-Chloro-2-(4-methylpiperazin-1-yl)quinazoline]
fold reduction in affinity (5-HT3A receptor; compared to compound 6): ~10 fold

CN1CCN(c2cc3ccccc3c(N)n2)CC1 [Compound 39, 3-(4-Methylpiperazin-1-yl)isoquinolin-1-amine]
fold lower affinity (5-HT3A receptor; [2]): 140 fold

CN1CCN(c2nc(N)c3ccccc3n2)CC1 [Compound 22]
selectivity for the 5-HT3A receptor over the H4R (5-HT3A receptor; H4R affinity from ref 35): ~40 000 fold | % inhibition of control specific binding ± s.e.m. (Glycine): <15%

CNc1nc(N2CCN(C)CC2)cc2ccccc12 [Compound 40, N-Methyl-3-(4-methylpiperazin-1-yl)isoquinolin-1-amine]
fold lower affinity (5-HT3A receptor; [2]): ~5 fold

CNc1nc(N2CCN(C)CC2)nc2ccccc12 [Compound 21, N-Methyl-2-(4-methylpiperazin-1-yl)quinazolin-4-amine]
fold reduction in affinity (5-HT3A receptor; compared to compound 6): ~5 fold

CNc1nc(N2CCN(C)CC2)nc2ccc(Cl)cc12 [Compound 6]
fold increase in affinity (5-HT3A receptor; compared to compound 1): 16 fold
